The source of these data is ChEMBL document CHEMBL2046362, “Synthesis and evaluation of novel potent HCV NS5A inhibitors” (Bioorg Med Chem Lett, 2012).

In data set [1] the target is Cytochrome P450 3A4 (Homo sapiens, UniProt P08684). Kind of data set: (§1) Inhibition of CYP3A4. It is filed as ADME.
Data set [2] addresses CYP3A4 (Homo sapiens, UniProt P08684). Described as §1. It is filed as ADME.
Data set [3] concerns the target T1, CYP1A2 (Homo sapiens, UniProt P05177).
T1 sequence (P05177 whole entry): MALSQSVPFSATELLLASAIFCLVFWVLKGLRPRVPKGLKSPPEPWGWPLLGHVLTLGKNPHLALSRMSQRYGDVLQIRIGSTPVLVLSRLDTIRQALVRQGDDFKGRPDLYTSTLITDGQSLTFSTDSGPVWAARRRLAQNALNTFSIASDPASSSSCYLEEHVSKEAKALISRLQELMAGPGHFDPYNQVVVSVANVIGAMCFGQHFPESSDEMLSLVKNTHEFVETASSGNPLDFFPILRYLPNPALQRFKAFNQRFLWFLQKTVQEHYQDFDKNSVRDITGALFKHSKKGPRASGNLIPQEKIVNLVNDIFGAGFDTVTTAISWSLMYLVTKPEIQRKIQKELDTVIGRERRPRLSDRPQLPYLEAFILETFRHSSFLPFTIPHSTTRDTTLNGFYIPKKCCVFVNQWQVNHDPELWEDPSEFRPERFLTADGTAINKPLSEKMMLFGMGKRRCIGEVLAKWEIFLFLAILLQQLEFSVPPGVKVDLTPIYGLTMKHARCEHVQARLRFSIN
Description: (§2) Inhibition of CYP1A2. It is filed as ADME.

Data set [4] concerns the target T2, Cytochrome P450 1A2 (Homo sapiens, UniProt P05177).
T2 sequence (P05177 whole entry): T1 sequence (P05177 whole entry)
The data set is described as §2. Format: ADME.

The test system of data set [5] is Vero. Description: Cytotoxicity against african green monkey Vero cells. It is filed as cell-based. The conditions noted are these: chlorocebus sabaeus.
Data set [6] has as its target Cytochrome P450 2D6 (Homo sapiens, UniProt P10635). Description: (§3) Inhibition of CYP2D6. Format: ADME.
Data set [7] concerns the target CYP2D6 (Homo sapiens, UniProt P10635). Described as §3. Format: ADME.
In data set [8] the test system is PBMC. Kind of data set: (§4) Cytotoxicity against human PBMC cells. It is filed as cell-based. The conditions noted are these: pbmc.
Data set [9] deals with Liver microsomes. Description: Half life in human liver microsomes at 1 uM measured 5 to 60 mins post dose by LC-MS/MS nethod. It is filed as ADME, Microsome. In general terms: Liver microsomes are vesicles of endoplasmic reticulum, rich in cytochrome P450 enzymes.
Data set [10] deals with CCRF-CEM. Description: Cytotoxicity against human CEM cells. Format: cell-based.
A short description of data set [11]: Chemical stability in phosphate buffer assessed as compound degradation at pH 7 at 20 degC measured between 2 to 48 hrs during 48 hrs incubation period. The conditions noted are these: pH 7, 48 h. It is filed as physicochemical.
For data set [12], the target named is T3, Nonstructural protein 5A (Hepatitis C virus) (UniProt Q5L478).
T3 sequence (whole entry): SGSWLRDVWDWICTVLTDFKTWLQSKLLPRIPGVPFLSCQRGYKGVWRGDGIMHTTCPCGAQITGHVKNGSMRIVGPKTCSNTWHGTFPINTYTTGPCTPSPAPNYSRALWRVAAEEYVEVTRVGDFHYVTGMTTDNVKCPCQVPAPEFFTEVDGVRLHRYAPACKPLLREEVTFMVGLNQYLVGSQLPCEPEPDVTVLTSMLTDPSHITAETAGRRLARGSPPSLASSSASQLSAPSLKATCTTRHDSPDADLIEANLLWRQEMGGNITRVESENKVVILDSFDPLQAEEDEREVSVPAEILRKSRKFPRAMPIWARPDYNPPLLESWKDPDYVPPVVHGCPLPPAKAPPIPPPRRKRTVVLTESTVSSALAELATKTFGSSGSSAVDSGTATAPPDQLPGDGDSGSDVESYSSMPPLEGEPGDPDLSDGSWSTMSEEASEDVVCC
Kind of data set: Inhibition of HCV NS5A assessed as antiviral activity against HCV by viral replicon assay. Conditions: Hepacivirus hominis.

Data set [13] can be described thus: Cytotoxicity against human HuH7 cells. Format: cell-based, Huh-7.
Data set [14] relates to Liver microsomes. Description: Intrinsic clearance in human liver microsomes assessed per mg protein at 1 uM measured 5 to 60 mins post dose by LC-MS/MS nethod. It is filed as ADME, Microsome.
The nature of data set [15]: Chemical stability in phosphate buffer assessed as compound degradation at pH 3 at 20 degC measured between 1 to 48 hrs during 48 hrs incubation period. Conditions: pH 3, 48 h.
Data set [16] deals with CYP2C9 (Homo sapiens, UniProt P11712). Description: (§5) Inhibition of CYP2C9. It is filed as ADME.
The target in data set [17] is Cytochrome P450 2C9 (Homo sapiens, UniProt P11712). The data set is described as §5. Format: ADME.
A short description of data set [18]: Cytotoxicity against human primary lymphocytes. Format: cell-based. Conditions: lymphocyte.
Data set [19] can be described thus: as §4. It is filed as cell-based. Conditions: PBMC cells.

pIC50: −log10 of the molar value. A value given as a limit tells only on which side of the number the result lay.

Cytochrome P450 2C9, sequence (P11712 whole entry): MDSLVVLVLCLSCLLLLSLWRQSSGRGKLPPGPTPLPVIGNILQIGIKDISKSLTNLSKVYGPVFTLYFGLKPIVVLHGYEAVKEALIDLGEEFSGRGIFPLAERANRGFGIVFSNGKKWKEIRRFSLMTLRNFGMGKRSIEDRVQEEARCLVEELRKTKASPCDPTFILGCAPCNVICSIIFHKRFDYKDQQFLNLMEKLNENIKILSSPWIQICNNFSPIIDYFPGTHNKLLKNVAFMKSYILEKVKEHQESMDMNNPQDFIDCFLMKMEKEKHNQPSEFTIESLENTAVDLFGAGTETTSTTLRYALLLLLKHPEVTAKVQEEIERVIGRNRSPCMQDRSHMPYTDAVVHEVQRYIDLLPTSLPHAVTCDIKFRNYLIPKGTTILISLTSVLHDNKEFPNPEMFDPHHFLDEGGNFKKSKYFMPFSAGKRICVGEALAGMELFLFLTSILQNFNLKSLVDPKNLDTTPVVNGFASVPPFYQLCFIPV
CYP2C9, sequence (P11712 whole entry): as above
Cytochrome P450 3A4, sequence (P08684 whole entry): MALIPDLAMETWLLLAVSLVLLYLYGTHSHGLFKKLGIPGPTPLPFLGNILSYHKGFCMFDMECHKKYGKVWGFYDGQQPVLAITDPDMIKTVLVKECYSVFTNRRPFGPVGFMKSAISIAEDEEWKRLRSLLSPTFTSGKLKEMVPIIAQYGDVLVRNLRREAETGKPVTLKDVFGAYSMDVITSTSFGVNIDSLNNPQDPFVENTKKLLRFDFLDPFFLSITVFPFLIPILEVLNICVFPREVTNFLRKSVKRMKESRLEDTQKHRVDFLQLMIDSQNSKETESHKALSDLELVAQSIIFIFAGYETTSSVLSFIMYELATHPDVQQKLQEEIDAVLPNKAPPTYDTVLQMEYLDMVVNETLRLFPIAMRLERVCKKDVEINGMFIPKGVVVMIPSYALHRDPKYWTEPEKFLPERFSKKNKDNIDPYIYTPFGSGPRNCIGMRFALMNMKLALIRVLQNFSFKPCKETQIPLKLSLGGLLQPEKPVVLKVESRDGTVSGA
CYP3A4, sequence (P08684 whole entry): as above
Cytochrome P450 2D6, sequence (P10635 whole entry): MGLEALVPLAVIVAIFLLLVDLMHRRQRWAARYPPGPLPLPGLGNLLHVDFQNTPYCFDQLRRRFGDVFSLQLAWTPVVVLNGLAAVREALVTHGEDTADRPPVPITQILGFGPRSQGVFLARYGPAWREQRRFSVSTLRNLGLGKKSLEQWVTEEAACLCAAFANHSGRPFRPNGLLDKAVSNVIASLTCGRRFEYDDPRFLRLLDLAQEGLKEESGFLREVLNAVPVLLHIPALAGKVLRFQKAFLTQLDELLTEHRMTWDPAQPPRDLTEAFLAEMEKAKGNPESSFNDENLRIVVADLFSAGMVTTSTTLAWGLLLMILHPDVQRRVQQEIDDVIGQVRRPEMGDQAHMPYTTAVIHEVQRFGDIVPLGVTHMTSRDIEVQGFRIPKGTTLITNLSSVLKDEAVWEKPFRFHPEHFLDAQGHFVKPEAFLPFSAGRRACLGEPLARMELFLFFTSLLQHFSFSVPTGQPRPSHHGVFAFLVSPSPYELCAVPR
CYP2D6, sequence (P10635 whole entry): as above

For `COC(=O)N[C@H](C(=O)N1CCC[C@H]1c1nc(Cl)c(-c2ccc(-c3ccc(-c4[nH]c([C@@H]5CCCN5C(=O)[C@@H](NC(=O)OC)C(C)C)nc4Cl)cc3)cc2)[nH]1)C(C)C`, the pIC50 (as a rule, the negative decadic logarithm of the IC50, by convention in mol/L) in data set [1] is 4.86; in data set [4], less than 4.00; in data set [6], less than 4.00; in data set [17] it was 4.09. Also, the IC90 in data set [2], in data set [3], in [7] and in data set [16] was greater than 100 µM in each case. Also, the CC50 (as a rule, the concentration that lowers cell viability or growth by half) in data set [5] was 100 µM; in data set [8], 2.8 µM; in data set [10], 12 µM; in [13], greater than 1 µM. For the same compound, the t1/2 in data set [9] came to 1.992 h. Moreover, the Stability entry in data set [11] and in data set [15] was “Stable” in each case. In addition, the EC90 (as a rule, the point of the concentration-response curve where the effect stands at 90%) in data set [12] turned out to be 0.0114 nM. This compound also yielded a CLint in data set [14] of 5.8 µL/min/mg.
In the case of `COC(=O)N[C@H](C(=O)N1CCC[C@H]1c1nc(F)c(-c2ccc(-c3ccc(-c4[nH]c([C@@H]5CCCN5C(=O)[C@@H](NC(=O)OC)C(C)C)nc4F)cc3)cc2)[nH]1)C(C)C`, the Activity result in [18] is recorded as “Toxic”. In addition, the pIC50 in [1] is 5.51; in data set [4] it was less than 4.00; in [6], less than 4.00; in data set [17], less than 4.00. In addition, the 90% effect concentration (IC90) in [2], in [3], in data set [7] and in data set [16] was greater than 100 µM each time. Further, the CC50 in [5] was greater than 100 µM; in [8] it was 19 µM; in [10] it was 3 µM; in data set [13], greater than 1 µM. The compound further returned a t1/2 in data set [9] of 2.063 h. For the same compound, the Stability entry in data set [11] and in data set [15] was “Stable” each time. Further, in [12], the EC90 was 0.0212 nM. The same compound showed a CLint in data set [14] of 5.6 µL/min/mg.
Turning to `COC(=O)N[C@H](C(=O)N1C[C@H](N=[N+]=[N-])C[C@H]1c1ncc(-c2ccc(-c3ccc(-c4cnc([C@@H]5C[C@@H](N=[N+]=[N-])CN5C(=O)[C@@H](NC(=O)OC)C(C)C)[nH]4)cc3)cc2)[nH]1)C(C)C`, the values for the CC50 in [19] and in data set [13] were greater than 100 µM and greater than 1 µM, respectively. The EC90 in data set [12] is 0.0542 nM.
